The text below walks through data of US20210268030A1, “FIBROADIPOGENIC PROGENITOR-DERIVED EXOSOMES FOR REGENERATION OF DYSTROPHIC MUSCLES” (EXOFIX S.R.L., priority 2018, published 2021).

Each structure is given as a SMILES string.

Experiment [1] relates to mdx muscles. Put plainly: Regeneration, fibrosis and inflammation in mdx tibialis anterior after exosome injection or systemic TSA. The conditions noted are these: 21 days; exosomes intramuscular every 7 days or TSA daily intra-peritoneal. It is filed as in vivo, mdx mice. The procedure: Animals were used at the specified age and treated for the indicated periods with daily intra peritoneal injections of Trichostatin A, TSA (0.6 mg/kg/day; #T8552, Sigma), dissolved in phospate-saline solution or in phospate-saline alone as vehicle control (CTR). Muscle injury was performed by intramuscular injection in Tibliais Anterior (TA) of Cardiotoxin—CTX− (10 μM, 10 mg/mL) (#L8102, Lotaxan Valence, France, http://www.latoxan.com), 3 days before mice sacrifice.
FAPs-derived exosomes at a final concentration of 10 μg in 20 μL of PBS1x (0.5 ug/μl) (#14190-1444, Gibco by life technologies) and its vehicle of control (20 μl PBS1x) were injected 3 times in left TA of young C57BL6/mdx mice: every 7 days for 21 days.
For Masson Trichrome staining to analyze fibrotic tissue, muscle cryo-sections were fixed for 20′ at 56° C. in Bouin's Solution (#HT10132, L Sigma) and then stained in Working Weigert's Iron Hematoxilin solution for 5 min (#HT1079, Sigma), washed in running tap water for 5 min and stained in Biebrich Scarlet-Acid Fucsin for 5 min (#HT151, Sigma). Sections were rinsed in de-ionized water and re-fixed in freshly made Phosphomolybdic/Phosphotungstic/dH2O (1:1:2) acid solution for 8 min (#HT153, #HT152, Sigma), and then they are stained in Aniline Blue solution for 5 min (#HT154, Sigma) and in acid acetic 1% for 2 min (#27221, Sigma). The slides were dehydratated in ethanol (#02860, Sigma) and xilene (#X1040, Sigma) and mounted with EUKITT (#03989, Sigma), then visualized using a Nikon Eclipse 90i: collagen fibers are stained in blue, the nuclei stained in black and the muscle tissue is stained in red. miRNA in situ hybridization was performed as described by Pena (2009) in formaldehyde and carbodiimide (EDC)-fixed TA cryo-sections (0.16M 90 min at RT,_#25952-53-8, Merck KGaA). After washes with 0.2% glycine (#G8898, Sigma) and TBS, cryo-sections were acetylated using 0.1 M triethanolamine and 0.25% acetic anhydride for 25 min at RT (respectively #90275, #A6404, Sigma). This steps are followed by a pre-hybridization using 2× of SSC, 25% formamide (#F9037, Sigma); 0.2% Triton (#X100, Sigma) 30 min at RT and by the over night hybridization at 4° C. with the has-miR206 probe (10 pmol, #18100-01, exiqon) dissolved in a solution of 50% formamide, 250 μg/ml tRNA (#R1753, Sigma), 200 μg/ml SSDNA (#D7656, Sigma), 10% dextran sulphate (#D8906, Sigma) and 2× SSC. The hybridization was followed by specific washes with SSC to eliminate non specific binding of probe (5× SSC 5 min at RT, 1× SSC 15 min at 45° C., 2% BSA in 0.2× SSC 15 min at 4° C., 2× SSC 5 min at RT, TNbuffer 10 min at RT and TNT buffer 15′ at RT) and by the incubation of cryo-section using anti-digoxigenin-ap fab fragments ( 1/100, #11093274910, Roche) dissolved in TNbuffer for 2 hours at RT. To reveal the miRNA probe specific binding cryo-sections, covered from light, were incubating over night at 4° C. with 0.375 mg/ml of NBT and 0.188 mg/ml BCIP dissolved in a solution of TMNbuffer (respectively #11383213001 and #11383221001, Roche).
For immunofluorescence analysis, cryo-sections and cells were fixed in 4% PFA for 10 min and permeabilized with 100% cold acetone (#32201, Sigma) for 6 min at −20° C. or 100% cold Methanol (#32213, Sigma) for 6 min at −20° or with 0.25% Triton for 15 min at RT. Muscle sections were blocked for 1 h with a solution containing 4% BSA (#A7030, Sigma) in PBS. […]

In experiment [2] the test system is miRs within FAP-derived exosomes. The experiment in a line: Taqman-based miR expression microarray of FAP-derived exosomes. The experiment is classed as in vivo. The conditions noted are these: mdx mice treated for 15 days with TSA vs control vehicle. Here is the method: Total exosomal RNA was extracted with Total Exosome RNA Protein Isolation Kit (#4478545, Thermo Fisher Scientific). TaqMan MicroRNA Assays were performed according to the manufacturer's recommended protocols (Applied Biosystems) The threshold cycle (Ct) were defined as the fractional cycle number at which the fluorescence passes the fixed threshold. U6 snRNA served as an endogenous control for normalization.
In particular, total exosomal-RNA was retro-transcribed using TaqMan MicroRNA Reverse Transcription Kit (#4366596, ThermoFisher Scientific)
For greater sensitivity, the cDNA was pre-amplified using Taqman PREAMP master mix (#4391128, ThermoFisher Scientific) and Megaplex PreAMP Primers and then amplified using high multiplexed Megaplex Primer Pool (#4444766, ThermoFisher Scientific) and the TaqMan 2× Universal Master Mix II (#4440040, ThermoFisher Scientific) on TaqMan rodent MicroRNA A/B cards Array version 3.0 (#4444909, ThermoFisher Scientific).
We then determined the identity of the miRs within FAP-derived exosomes, by performing a Taqman-based miR expression microarray from exosomes isolated from the supernatant of FAPs derived by mdx mice treated for 15 days with TSA or control vehicle (CTR).
On the technique in general: In qPCR the cycle at which signal appears reflects the starting amount.

The subject of experiment [3] is miR-206. The experiment in a line: miR-206 in situ hybridization of tibialis anterior sections. The following applies: young mdx mice (1.5 months of age). The experiment is classed as in vivo. Here is the method: Animals were used at the specified age and treated for the indicated periods with daily intra peritoneal injections of Trichostatin A, TSA (0.6 mg/kg/day; #T8552, Sigma), dissolved in phospate-saline solution or in phospate-saline alone as vehicle control (CTR). Muscle injury was performed by intramuscular injection in Tibliais Anterior (TA) of Cardiotoxin—CTX− (10 μM, 10 mg/mL) (#L8102, Lotaxan Valence, France, http://www.latoxan.com), 3 days before mice sacrifice. […]
Of note, transgenic miR-206 upregulation has been exploited as tool for the treatment of DMD and other muscular disorders (Liu et al., 2012; Williams et al., 2009; Fry et al., 2017). […] The same pattern could be observed in mdx mice, in which an abundant miR-206 signal was detected in the interstitium of tibialis anterior muscles, overlapping with the immunofluorescence staining of the FAP's marker Sca-1 (FIG. 3H). […] We performed a quantitative assessment of exosomal miR-206, by isolating whole tibialis anterior (TA) muscles from TSA-treated mdx muscle or untreated control mdx mice, followed by gentle dissociation and exosome isolation.

As to `CC(/C=C/C(=O)NO)=C\[C@@H](C)C(=O)c1ccc(N(C)C)cc1` [TSA, Trichostatin A], in experiment [1], the “embryonic-MyHC-positive myofibers (eMyHC)” value is on record as “increase”; the “fibers calibre, cross sectional area (CSA)” value was “increase”; the fibrosis entry was “reduce”; the “inflammation (MPO)” value is given as “significant reduction”. The “muscle fiber area fraction (MFAF)” value in experiment [1] is recorded as “increase”. Moreover, the “miRs in exosomes from FAPs” value in experiment [2] is “several miRs up-regulated”. Also, the “amount of interstitial miR-206 signal associated with Sca-1 staining” value in experiment [3] is given as “increased”.
